Tests used:
[1] = tested on: murine thymoma ITT(1) 75NS E3 (Ly-2^+); experiment: 30 minute inhibition assay ([^3 H]-thymidine incorporation), E3; assay type: cell-based; conditions: 0.5 h
Excerpt: (§1) The cell lines examined in this study included the (Ly-2^+) murine thymoma ITT(1) 75NS E3 variant (E3) (Smyth et al, J. Natl Cancer Inst. 1986 76 503-510), the (Ly-2^-, TFR^-) lymphoma EL4 (Horowitz et al, Science 1968 160 533-535), the (TFR^+) human cell line CEM (Foley et al Cancer 1965 18 522-529) and the (250-30.6^+) human cell line COLO 205. Cells were maintained in vitro in Dulbecco's Modified Eagle's medium (DME) or RPMI 1640 medium (Flow Laboratories, Sydney, Australia), supplemented with 10% heat inactivated newborn calf serum (Flow), 2 mM glutamine (Commonwealth Serum Laboratories, Sydney, Australia); 100 ug/ml streptomycin (Glaxo, Melbourne, Australia) and 100 I.U./ml penicillin (Commonwealth Serum Laboratories). The E3 tumour was maintained in vivo by serial passage into (C57BL/6×BALB/c)F1 mice (CBF1 mice). Cells from the ascites fluid were washed and centrifuged (400 g×5 min) twice in phosphate buffered saline (PBS), pH7.3, resuspended in PBS and injected subcutaneously (s.c.) into the abdominal wall of mice; these developed into palpable tumours prior to treatment. Mice were subjected to a series of intraveneous (i.v.) or intratumour (i.t.) treatments and the subsequent size of tumours was measured daily with a caliper square, measuring along the perpendicular axes of the tumours. Data was recorded as mean tumour size (product of two diameters ± standard error).
(§2) (b) 30 minute inhibition assay: 200 ul of cells (2-5×10^6 /ml) were collected in sterile Eppendorf tubes, resuspended in sterile drug or conjugate and mixed for 30 min at 37° C. Cells were then centrifuged (400 g×5 min), resuspended in growth medium and 100 ul aliquots were seeded into a microtitre plate using duplicate wells for each sample before an incubation period of 16-24 hours. After the incubation period in both these assays, 50 ul of growth medium containing 1 uCi of [^3 H]-thymidine (specific activity=5 Ci/mmol; Amersham) was added and the plates incubated for 2-4 hours. Cells were then harvested and dried, and individual samples were separated and counted on a beta scintillation counter.

[2] = tested on: COLO 205 xenografts; experiment: i.v. treatment of COLO 205 xenografts in nude mice; assay type: in vivo, nude (nu/nu) mice; human tumour; conditions: total 275 ug Ida
Description: Injection of 2×10^6 cells subcutaneously into the abdominal wall yielded a palpable lump within 4 days (approx. 0.1 cm^2).

[3] = tested on: human cell line CEM; experiment: 24 hour inhibition assay ([^3 H]-thymidine incorporation), CEM; assay type: cell-based
Excerpt: as §1, with “The E3 tumour was maintained in vivo by serial passage into (C57BL/6×BALB/c)F1 mice (CBF1 mice). Cells from the ascites fluid were washed and centrifuged (400 g×5 min) twice in phosphate buffered saline (PBS), pH7.3, resuspended in PBS and injected subcutaneously (s.c.) into the abdominal wall of mice; these developed into palpable tumours prior to treatment.” left out
(§3) (b) 30 minute inhibition assay: 200 ul of cells (2-5×10^6 /ml) were collected in sterile Eppendorf tubes, resuspended in sterile drug or conjugate and mixed for 30 min at 37° C. […] Cells were then harvested and dried, and individual samples were separated and counted on a beta scintillation counter.

[4] = Acute toxicity, single i.v. injection in CBA mice; assay type: in vivo; conditions: mouse, in vivo, iv; Table 2; Ida (mg/kg)
Description: (§4) Groups of 10-20 CBA mice were given a single i.v. injection of various doses of Ida or Ida-anti-Ly-2.1 and the survival of mice was recorded against the dose of drug delivered in mg/kg. The organs of these mice were removed and weighed prior to formalin fixation and staining by haematoxylin and eosin.
(§5) For acute toxicity experiments groups of 10 CBA (Ly2.1^+) mice were given a single injection of various doses of either Ida, Ida-anti-Ly-2.1 or Ida-anti-TFR. […] Ida-MoAb conjugates were not tested to an LD50 dose.

[5] = tested on: CBA mice; experiment: Acute toxicity, single i.v. injection in CBA mice; assay type: in vivo
Description: as §4, §5

[6] = tested on: E3 and CEM cell lines
Description: as §2

[7] = tested on: human cell line CEM; experiment: cells; assay type: cell-based; conditions: 0.5 h, Table 3, 30 min, read-out: Mean I.D.50 values (Ida (M))
Description: (§6) The cell lines examined in this study included the (Ly-2^+) murine thymoma ITT(1) 75NS E3 variant (E3) (Smyth et al, J. Natl Cancer Inst. 1986 76 503-510), the (Ly-2^-, TFR^-) lymphoma EL4 (Horowitz et al, Science 1968 160 533-535), the (TFR^+) human cell line CEM (Foley et al Cancer 1965 18 522-529) and the (250-30.6^+) human cell line COLO 205. […] Mice were subjected to a series of intraveneous (i.v.) or intratumour (i.t.) treatments and the subsequent size of tumours was measured daily with a caliper square, measuring along the perpendicular axes of the tumours. Data was recorded as mean tumour size (product of two diameters ± standard error).
as §3
(§7) Data was recorded as mean tumour size (product of two diameters ± standard error).

[8] = tested on: solid E3 tumour; experiment: Intratumour treatment of E3 tumours in CBF1 mice; assay type: in vivo; conditions: days 5 and 6, total Ida=30 ug
Description: The E3 tumour was maintained in vivo by serial passage into (C57BL/6×BALB/c)F1 mice (CBF1 mice). Cells from the ascites fluid were washed and centrifuged (400 g×5 min) twice in phosphate buffered saline (PBS), pH7.3, resuspended in PBS and injected subcutaneously (s.c.) into the abdominal wall of mice; these developed into palpable tumours prior to treatment. Mice were subjected to a series of intraveneous (i.v.) or intratumour (i.t.) treatments and the subsequent size of tumours was measured daily with a caliper square, measuring along the perpendicular axes of the tumours. Data was recorded as mean tumour size (product of two diameters ± standard error).

[9] = tested on: CBA mice (organs); experiment: Histopathology after single i.v. dose; assay type: in vivo; conditions: 1.0 mg/kg i.v.
Description: as §4

[10] = tested on: (L3T4^+) lymphoma EL4; experiment: 30 minute inhibition assay ([^3 H]-thymidine incorporation), EL4; assay type: cell-based; conditions: 0.5 h; Table 3; EL4, 30 min; read-out: Mean I.D.50 values (Ida (M))
Description: as §2, with “counter. Incorporation of [^3 H]-thymidine was expressed as a percentage inhibition in incorporation of controls.” for “counter.”
The cell lines examined in this study included the (Ly-2^+) murine thymoma ITT(1)75NS E3 variant (E3), the (L3T4^+) lymphoma EL4 (Horowitz et al, Science 1968 160 533-535), the human colon carcinoma Colo 205 (Semple et al, Cancer Res. 1978 38 1345-1355) and the (Ly-2^-, L3T4^-) human T cell leukemia CEM (Foley et al, Cancer 1965 18 522-529). Cells were maintained in vitro as described in Example 1. […] Mice were then subjected to a series of i.v. treatments and the size of the tumours was measured daily with a caliper square, measuring along the perpendicular axes of the tumours. […]

[11] = tested on: murine thymoma ITT(1) 75NS E3 (Ly-2^+); experiment: 24 hour inhibition assay ([^3 H]-thymidine incorporation), E3; assay type: cell-based; conditions: Mus musculus
Excerpt: as §1, with “The E3 tumour was maintained in vivo by serial passage into (C57BL/6×BALB/c)F1 mice (CBF1 mice). Cells from the ascites fluid were washed and centrifuged (400 g×5 min) twice in phosphate buffered saline (PBS), pH7.3, resuspended in PBS and injected subcutaneously (s.c.) into the abdominal wall of mice; these developed into palpable tumours prior to treatment.” left out
as §3

[12] = tested on: COLO 205; experiment: 30 minute inhibition assay ([^3 H]-thymidine incorporation), COLO 205; assay type: cell-based; conditions: Homo sapiens, 0.5 h
Description: as §6, §3, §7

[13] = tested on: COLO 205; experiment: 24 hour inhibition assay ([^3 H]-thymidine incorporation), COLO 205; assay type: cell-based; conditions: Homo sapiens
Description: as §6, with “error). […]” for “error).”
(b) 30 minute inhibition assay: 200 ul of cells (2-5×10^6 /ml) were collected in sterile Eppendorf tubes, resuspended in sterile drug or conjugate and mixed for 30 min at 37° C. […] Cells were then harvested and dried, and individual samples were separated and counted on a beta scintillation counter. Incorporation of [^3 H]-thymidine was expressed as a percentage inhibition in incorporation of controls. […]

[14] = tested on: tumour cell lines tested; experiment: 24 hour assay, tumour cell lines tested (Example 2); assay type: cell-based
Description: […] Cells were then centrifuged (400 g×5 min), resuspended in growth medium and 100 ul aliquots were seeded into a microtitre plate using duplicate wells for each sample before an incubation period of 16-24 hours. After the incubation period in both these assays, 50 ul of growth medium containing 1 uCi of [^3 H]-thymidine (specific activity=5 Ci/mmol; Amersham) was added and the plates incubated for 2-4 hours. Cells were then harvested and dried, and individual samples were separated and counted on a beta scintillation counter.

[15] = tested on: (L3T4^+) lymphoma EL4; experiment: 24 hour inhibition assay ([^3 H]-thymidine incorporation), EL4; assay type: cell-based; conditions: Table 3; EL4, 24 hr; read-out: Mean I.D.50 values (Ida (M))
Description: (a) 24 hour inhibition assay: 100 ul of cells (2-5×10^6 /ml) were added to a flat-bottomed microtitre plate and incubated for 1 hour at 37° C. Free Idarubicin (Ida) (dissolved in PBS) and Ida-MoAb conjugates were filtered aseptically and dilutions were performed in sterile PBS; 50 ul of free Ida or conjugate were added to the cells using duplicate wells for each sample; control wells received 50 ul of PBS and the cells were cultured at 37° C., 7% CO2 for 24 hours.
(b) 30 minute inhibition assay: 200 ul of cells (2-5×10^6 /ml) were collected in sterile Eppendorf tubes, resuspended in sterile drug or conjugate and mixed for 30 min at 37° C. […] Cells were then harvested and dried, and individual samples were separated and counted on a beta scintillation counter. Incorporation of [^3 H]-thymidine was expressed as a percentage inhibition in incorporation of controls.
The cell lines examined in this study included the (Ly-2^+) murine thymoma ITT(1)75NS E3 variant (E3), the (L3T4^+) lymphoma EL4 (Horowitz et al, Science 1968 160 533-535), the human colon carcinoma Colo 205 (Semple et al, Cancer Res. 1978 38 1345-1355) and the (Ly-2^-, L3T4^-) human T cell leukemia CEM (Foley et al, Cancer 1965 18 522-529). […] Mice were then subjected to a series of i.v. treatments and the size of the tumours was measured daily with a caliper square, measuring along the perpendicular axes of the tumours. […]

[16] = tested on: E3 thymoma; experiment: i.v. treatment of s.c. E3 thymoma in CBF1 mice (2.0×10^6 cells); assay type: in vivo; conditions: 20 ug Ida, days 4 and 5
Excerpt: as §1, with “error). […]” for “error).”

In the case of `CC(=O)[C@]1(O)Cc2c(O)c3c(c(O)c2[C@@H](O[C@H]2C[C@H](N)[C@H](O)[C@H](C)O2)C1)C(=O)c1ccccc1C3=O` [Ida, 4-demethoxy-daunorubicin], the IC50 ([1]; E3, 30 min, compared with COLO 205, Example 1, read-out: dose response to free drug (I.D.50)) is reported as 9.8e-07 M, the IC50 ([1]; Mus musculus, E3, incubated 30 minutes, Example 1, read-out: I.D.50 (the source's name)) is reported as 5.2e-07 M and the IC50 ([1]; Mus musculus, Table 3, E3, 30 min, read-out: Mean I.D.50 values (Ida (M))) is reported as 1.8e-07 M. The mice survived [2] was 2 out of 10, the IC50 ([3]; Table 1, 24 hour assay, read-out: Mean I.D.50 (50% inhibition in [^3 H]-thymidine incorporation of controls)) was 2.2e-07 M and the IC50 ([3]; Table 3, 24 hr, read-out: Mean I.D.50 values (Ida (M))) was 9e-08 M. The LD50 [4] was 3 mg/kg, the L.D.10 ([5]; Table 2, Ida (mg/kg)) was 0.75 mg/kg and the LD10 ([5]; mg/kg of Ida, single i.v.) was 0.75 mg/kg. The “initial weight loss (of original weight)” value ([5]; single i.v. injection, all mice) was “up to 25%”, the “cytotoxicity of free Ida compared with conjugates” value [6] was “more cytotoxic to both E3 and CEM than Ida-anti-Ly-2.1 and Ida-anti-TFR respectively” and the IC50 [7] was 2.2e-07 M. The “anti-tumour activity / effect on tumour growth” value [8] was “not affecting tumour growth”, the spleen histopathology ([9]; 15 days) was “atrophy of the white pulp in the spleen” and the cardiac histopathology ([9]; data not shown) was “some hypertrophy of cardiac muscle fibres”. The IC50 [10] was 1.6e-07 M, the IC50 ([11]; Table 1, E3, 24 hour assay, read-out: Mean I.D.50 (50% inhibition in [^3 H]-thymidine incorporation of controls)) was 1.2e-07 M and the IC50 ([11]; Table 3, E3, 24 hr, read-out: Mean I.D.50 values (Ida (M))) was 7.8e-08 M. The IC50 ([12]; COLO 205, 30 min, Example 1, read-out: dose response to free drug (I.D.50)) was 9.2e-07 M, the IC50 ([12]; Table 3, Colo 205, 30 min, read-out: Mean I.D.50 values (Ida (M))) was 1.2e-07 M and the IC50 ([13]; Table 3, Colo 205, 24 hr, read-out: Mean I.D.50 values (Ida (M))) was 8e-08 M. The IC50 ([13]; target cell line COLO 205, Example 1, read-out: I.D.50 (the source's name)) was 6e-08 M, the “activity of free Ida relative to Ida-MoAb conjugates” value [14] was 4-10 times and the IC50 [15] was 6.6e-08 M. For the same molecule, the tumour reduction [16] was “up to 50%” and the mice died ([16]; of 10 mice) was 3.

Source: patent US5798097A, “Immunogobulin conjugates” (Pharmacia & Upjohn S.p.A., priority 1987, dated 1998)
